# According to patent US20260240644A1, “BIOPOLYMER-BASED TYMPANOSTOMY TUBES WITH PROGRAMMABLE, TUNABLE, AND ON-DEMAND DEGRADATION” (Trustees of Tufts College, priority 2023, published 2026):
# Test system: Xen29, a Staphylococcus aureus strain
# Assay: Kirby Bauer disc diffusion assay of Ciprodex-loaded chitosan
# Assay type: cell-based
# Conditions: loaded in chitosan; growth inhibition of Xen29
# Description: FIG. 27 depicts results of the Kirby Bauer disc diffusion assay.
# To estimate the concentration of ciprofloxacin released by the chitosan, a standard curve was established using blank paper discs and known dilutions of Ciprodex.
smiles,measurement,value
"O=C(O)c1cn(C2CC2)c2cc(N3CCNCC3)c(F)cc2c1=O [Ciprofloxacin, ciprofloxacin]",bioactivity of loaded Ciprofloxacin,maintained its bioactivity
